Target: T1, PCP (Phencylidine) receptor (Rattus norvegicus, UniProt P35439)
T1 construct: the pellets were then suspended in 5mM Tris-HCI buffer and used as the receptor preparation; from tissue; host or cells: rat (male Slc-Wistar) cerebral cortex membrane preparation
Test: Binding test against PCP (Phencylidine) receptor, 3H-TCP displacement in rat cortex membrane preparation
Parameters: species or system rats (male, Slc-Wistar rat)
Settings: rat cortex receptor preparation (0.2mg protein/ml), labelled ligand 3H-TCP, 25 °C 30 minutes
Experimental: Binding test against PCP (Phencylidine) receptor Experiment
After the decapitation of rats (male, Slc-Wistar rat, 10 15 weeks age), the cortex tissues was rapidly removed and each was weighed. The tissue was homogenized with ten-fold amount of ice-cold 50mM Tris-HCI buffer (pH7.4), and centrifuged at 40,000 x g for 10 minutes. This procedure is repeated 3 times. Then the obtained sample was freeze-dried in liquid nitrogen and preserved at -80 ° C On the test day, the sample was thawed at room temperature and centrifuged at 40,000 x g for 10 minutes, the pellets were then suspended in 5mM Tris-HCI buffer and used as the receptor preparation (0.2mg protein/ml). The preparation was added to the mixture containing the labelled ligand (^3H-TCP, […]) and the test drug, and the incubation was carried out (25 °C 30 minutes). The reaction was stopped by rapid filtering through Whatman GF/C filter and the filtrate was washed. Radioactivity on filters was determined by liquid scintillation counter and Ki value was calculated. The Whatmann GF/C filter was soaked in 0.05 % polyethyleneimine. (Literature : Vignon, J. et al., Brain R.,280; 194-197 (1983))

SMILES	Ki [µM]
c1ccc2c(c1)CCc1ccccc1C21CCCN1 [I a-1, Spiro(dibenzosuberane-5,2'-pyrrolidine)]	0.047
CCN1CCCC12c1ccccc1CCc1ccccc12 [I a-3, Spiro[dibenzosuberane-5,2'-(1-ethylpyrrolidine)]]	0.62
Cc1ccc2c(c1)C1(CCCN1)c1ccccc1CC2 (stereo not drawn) [I a-7]	0.031
Cc1ccc2c(c1)C1(CCCN1C)c1ccccc1CC2 (stereo not drawn) [I a-8]	0.51
CCCN1CCCC12c1ccccc1CCc1ccc(C)cc12 (stereo not drawn) [I a-9, Spiro[3-methyldibenzosuberane-5,2'-(1-n-propylpyrrolidine)]]	0.77
CCN1CCCC12c1ccccc1CCc1ccc(C)cc12 (stereo not drawn) [I a-10]	0.25
Cc1ccc2c(c1)C1(CCCN1Cc1ccccc1)c1ccccc1CC2 (stereo not drawn) [I a-11]	> 0.71
Clc1ccc2c(c1)C1(CCCN1)c1ccccc1CC2 (stereo not drawn) [I a-13, Spiro(3-chlorodibenzosuberane-5,2'-pyrrolidine)]	0.023
CCN1CCCC12c1ccccc1CCc1ccc(Cl)cc12 (stereo not drawn) [I a-14]	0.54

Reference: patent EP0456183B1, “Spiro dibenzosuberane derivatives” (SHIONOGI SEIYAKU KABUSHIKI KAISHA, priority 1990, dated 1991)
